Values after ≈ are worked out from the molar mass of the structure shown. Active and inactive are the calls of the source. The calls are words filed in the database; no cut-off is given here.
Key:
[1] = tested on: Enterococcus faecalis; test: Antibacterial activity against Enterococcus faecalis clinical isolate 7; assay type: functional
[2] = tested on: Staphylococcus aureus; test: Antibacterial activity against methicillin resistant Staphylococcus aureus clinical isolate 003; assay type: functional
[3] = tested on: Enterococcus faecalis; test: Antibacterial activity against multidrug resistant Enterococcus faecalis ATCC 51299 infected in cyclophosphamide immunosuppressed mouse model of abdominal infection assessed as eradication of bacterial colonies in liver at 5 mg/kg measured after 60 hrs relative to control; assay type: functional
[4] = tested on: Enterococcus faecalis; test: Antibacterial activity against multidrug resistant Enterococcus faecalis ATCC 51299; assay type: functional
[5] = tested on: Staphylococcus aureus; test: Antibacterial activity against Staphylococcus aureus clinical isolate 31; assay type: functional
[6] = tested on: Enterococcus faecalis; test: Antibiofilm activity in multidrug resistant Enterococcus faecalis ATCC 51299 by crystal violet staining based analysis; assay type: functional
[7] = tested on: Enterococcus faecalis; test: Antibacterial activity against Enterococcus faecalis clinical isolate 13; assay type: functional
[8] = tested on: Enterococcus faecalis; test: Antibacterial activity against multidrug resistant Enterococcus faecalis ATCC 51299 assessed as resistance development by measuring fold increase in MIC measured after 20 passages; assay type: functional
[9] = tested on: Staphylococcus aureus; test: Antibacterial activity against methicillin resistant Staphylococcus aureus clinical isolate 011; assay type: functional
[10] = tested on: Staphylococcus aureus; test: Antibacterial activity against Staphylococcus aureus clinical isolate 29; assay type: functional
[11] = tested on: Staphylococcus aureus; test: Antibacterial activity against methicillin resistant Staphylococcus aureus clinical isolate 031; assay type: functional
[12] = tested on: Enterococcus faecalis; test: Antibacterial activity against multidrug resistant Enterococcus faecalis ATCC 51299 infected in cyclophosphamide immunosuppressed mouse model of abdominal infection assessed as eradication of bacterial colonies in kidney at 5 mg/kg measured after 60 hrs relative to control; assay type: functional
[13] = tested on: Staphylococcus aureus; test: Antibiofilm activity in methicillin resistant Staphylococcus aureus clinical isolate 003 by crystal violet staining based analysis; assay type: functional
[14] = tested on: Enterococcus faecalis; test: Antibacterial activity against multidrug resistant Enterococcus faecalis ATCC 51299 infected in cyclophosphamide immunosuppressed mouse model of abdominal infection assessed as eradication of bacterial colonies in spleen at 5 mg/kg measured after 60 hrs relative to control; assay type: functional
[15] = tested on: Enterococcus faecalis; test: Antibacterial activity against multidrug resistant Enterococcus faecalis ATCC 51299 infected in cyclophosphamide immunosuppressed mouse model of abdominal infection assessed as eradication of bacterial colonies in ascites at 5 mg/kg measured after 60 hrs relative to control; assay type: functional
[16] = tested on: Staphylococcus aureus; test: Antibacterial activity against methicillin resistant Staphylococcus aureus clinical isolate 003 infected in cyclophosphamide immunosuppressed mouse model of skin wound infection assessed as reduction in bacterial load in wound at 5 mg/kg administered for 7 days and measured on day 8 (reference value: 1.6 x 10^8 CFU); assay type: functional; conditions: time 8 day
[17] = Toxicity in Galleria mellonella assessed as survival rate at 10 mg/kg observed after 7 days; assay type: organism-based; conditions: in vivo, time 7 day
[18] = tested on: Staphylococcus aureus; test: Antibacterial activity against methicillin resistant Staphylococcus aureus clinical isolate 003 infected in cyclophosphamide immunosuppressed mouse model of skin wound infection assessed as wound healing at 5 mg/kg administered for 7 days and measured on day 8; assay type: functional, organism-based; conditions: time 8.0 day

| SMILES | MIC [1] [µg/mL] | MIC [2] [µg/mL] | Activity [3] [%] | MIC [4] [µg/mL] | MIC [5] [µg/mL] | MBEC [6] [µg/mL] | MIC [7] [µg/mL] | fold change (FC) [8] | MIC [9] [µg/mL] | MIC [10] [µg/mL] | MIC [11] [µg/mL] | Activity [12] [%] | MBEC [13] [µg/mL] | Activity [14] [%] | Activity [15] [%] | Activity [16] | survival at 168 h [17] [%] | Activity [18] |
| --- | --- | --- | --- | --- | --- | --- | --- | --- | --- | --- | --- | --- | --- | --- | --- | --- | --- | --- |
| CC1(C)S[C@@H]2[C@H](NC(=O)[C@H](N)c3ccccc3)C(=O)N2[C@H]1C(=O)O [AMPICILLIN] | 2 (≈ 5.72 µM) | > 128 | 90.58 | 2 (≈ 5.72 µM) | 2 (≈ 5.72 µM) | >256 | 2 (≈ 5.72 µM) | 16 | > 128 | 2 (≈ 5.72 µM) | > 128 | 95.99 | >256 | 83.11 | 89.18 | – | – | – |
| CCCCCCc1c(-c2ccc(OCCCCN(CCC)CCC)cc2OCCCCN(CCC)CCC)oc2cc(OC)cc(O)c2c1=O | 16 (≈ 23 µM) | 8 (≈ 11.5 µM) | – | 16 (≈ 23 µM) | 8 (≈ 11.5 µM) | – | 16 (≈ 23 µM) | – | 8 (≈ 11.5 µM) | 16 (≈ 23 µM) | 16 (≈ 23 µM) | – | – | – | – | – | – | – |
| CCCCCCc1c(-c2ccc(OCCCCCCN(C)C)cc2OCCCCCCN(C)C)oc2cc(OC)cc(O)c2c1=O | 4 (≈ 6.26 µM) | 2 (≈ 3.13 µM) | – | 4 (≈ 6.26 µM) | 2 (≈ 3.13 µM) | – | 1 (≈ 1.57 µM) | – | 4 (≈ 6.26 µM) | 2 (≈ 3.13 µM) | 2 (≈ 3.13 µM) | – | – | – | – | – | – | – |
| CCCCCCc1c(-c2ccc(OCCCCNC3CCCCC3)cc2OCCCCNC2CCCCC2)oc2cc(OC)cc(O)c2c1=O | 1 (≈ 1.45 µM) | 1 (≈ 1.45 µM) | – | 2 (≈ 2.89 µM) | 2 (≈ 2.89 µM) | – | 1 (≈ 1.45 µM) | – | 2 (≈ 2.89 µM) | 1 (≈ 1.45 µM) | 4 (≈ 5.79 µM) | – | – | – | – | – | – | – |
| CCCCCCc1c(-c2ccc(OCCCCNCc3ccc(Cl)cc3)cc2OCCCCNCc2ccc(Cl)cc2)oc2cc(OC)cc(O)c2c1=O | 32 (≈ 41.2 µM) | 32 (≈ 41.2 µM) | – | 32 (≈ 41.2 µM) | 16 (≈ 20.6 µM) | – | 32 (≈ 41.2 µM) | – | 16 (≈ 20.6 µM) | 32 (≈ 41.2 µM) | 32 (≈ 41.2 µM) | – | – | – | – | – | – | – |
| CCCCCCc1c(-c2ccc(OCCCCNCCc3ccccc3)cc2OCCCCNCCc2ccccc2)oc2cc(OC)cc(O)c2c1=O | 8 (≈ 10.9 µM) | 4 (≈ 5.44 µM) | – | 4 (≈ 5.44 µM) | 4 (≈ 5.44 µM) | – | 4 (≈ 5.44 µM) | – | 4 (≈ 5.44 µM) | 8 (≈ 10.9 µM) | 4 (≈ 5.44 µM) | – | – | – | – | – | – | – |
| CN[C@H](CC(C)C)C(=O)N[C@H]1C(=O)N[C@@H](CC(N)=O)C(=O)N[C@H]2C(=O)N[C@H]3C(=O)N[C@H](C(=O)N[C@H](C(=O)O)c4cc(O)cc(O)c4-c4cc3ccc4O)[C@H](O)c3ccc(c(Cl)c3)Oc3cc2cc(c3O[C@@H]2O[C@H](CO)[C@@H](O)[C@H](O)[C@H]2O[C@H]2C[C@](C)(N)[C@H](O)[C@H](C)O2)Oc2ccc(cc2Cl)[C@H]1O [VANCOMYCIN] | – | – | – | > 128 | – | >256 | 2 (≈ 1.38 µM) | – | – | – | – | – | >256 | – | – | 5.1 10^6CFU | 80 | Active |
| CCCCCCc1c(-c2ccc(OCCCCN3CCCCC3)cc2OCCCCN2CCCCC2)oc2cc(OC)cc(O)c2c1=O | 2 (≈ 3.02 µM) | 2 (≈ 3.02 µM) | – | 2 (≈ 3.02 µM) | 1 (≈ 1.51 µM) | – | 1 (≈ 1.51 µM) | – | 1 (≈ 1.51 µM) | 2 (≈ 3.02 µM) | 2 (≈ 3.02 µM) | – | – | – | – | – | – | – |
| CCCCCCc1c(-c2ccc(O)cc2O)oc2cc(OC)cc(O)c2c1=O | 4 (≈ 10.4 µM) | 4 (≈ 10.4 µM) | – | 8 (≈ 20.8 µM) | 4 (≈ 10.4 µM) | – | 8 (≈ 20.8 µM) | – | 4 (≈ 10.4 µM) | 4 (≈ 10.4 µM) | 4 (≈ 10.4 µM) | – | – | – | – | – | – | – |
| CCCCCCc1c(-c2ccc(OCCCCNCCCCCCCCN)cc2OCCCCNCCCCCCCCN)oc2cc(OC)cc(O)c2c1=O | 1 (≈ 1.28 µM) | 0.5 (≈ 0.64 µM) | – | 1 (≈ 1.28 µM) | 0.5 (≈ 0.64 µM) | – | 1 (≈ 1.28 µM) | – | 1 (≈ 1.28 µM) | 1 (≈ 1.28 µM) | 1 (≈ 1.28 µM) | – | – | – | – | – | – | – |
| CCCCCCc1c(-c2ccc(OCCCCN3CCCC(C)C3)cc2OCCCCN2CCCC(C)C2)oc2cc(OC)cc(O)c2c1=O (stereo not drawn) | 2 (≈ 2.89 µM) | 1 (≈ 1.45 µM) | – | 2 (≈ 2.89 µM) | 2 (≈ 2.89 µM) | – | 2 (≈ 2.89 µM) | – | 2 (≈ 2.89 µM) | 2 (≈ 2.89 µM) | 2 (≈ 2.89 µM) | – | – | – | – | – | – | – |
| CCCCCCc1c(-c2ccc(OCCCCNCc3ccc(F)cc3)cc2OCCCCNCc2ccc(F)cc2)oc2cc(OC)cc(O)c2c1=O | 32 (≈ 43.1 µM) | 16 (≈ 21.5 µM) | – | 16 (≈ 21.5 µM) | 8 (≈ 10.8 µM) | – | 8 (≈ 10.8 µM) | – | 16 (≈ 21.5 µM) | 16 (≈ 21.5 µM) | 16 (≈ 21.5 µM) | – | – | – | – | – | – | – |
| CCCCCCc1c(-c2ccc(OCC(=O)CN[C@H](CCCNC(=N)N)C(N)=O)cc2OCC(=O)CN[C@H](CCCNC(=N)N)C(N)=O)oc2cc(OC)cc(O)c2c1=O | > 64 | 8 (≈ 9.54 µM) | – | > 64 | 8 (≈ 9.54 µM) | – | > 64 | – | 32 (≈ 38.1 µM) | 32 (≈ 38.1 µM) | 8 (≈ 9.54 µM) | – | – | – | – | – | – | – |
| CCCCCCc1c(-c2ccc(OCCCCNCCC)cc2OCCCCNCCC)oc2cc(OC)cc(O)c2c1=O | 2 (≈ 3.27 µM) | 2 (≈ 3.27 µM) | – | 2 (≈ 3.27 µM) | 2 (≈ 3.27 µM) | – | 2 (≈ 3.27 µM) | – | 2 (≈ 3.27 µM) | 2 (≈ 3.27 µM) | 2 (≈ 3.27 µM) | – | – | – | – | – | – | – |
